According to US20130090329A1, “Methods and Compositions for the Treatment of Psychotic Disorders Through the Identification of the Olanzapine Poor Response Predictor Genetic Signature” (SUREGENE, LLC, priority 2011, published 2013):
Marks after values point to notes of the source that are not given here.

Assays:
[1] = test system: patients suffering from schizophrenia and related disorders; assay: CATIE study: worsening of symptoms (LOCF delta PANSS ≧0%) by OPRP status; assay type: in vivo, human; conditions: for Worsening: delta PANSS ≧0%
Protocol: (§1) A total of 738 subjects consented to provide DNA for genetic study. […] Only retrospective genetic analyses, judged to be exempt from human studies requirements by an IRB, were conducted in the current study. For the genetic analyses presented herein, the inventors combined and evaluated drug response data for both Phase I and Phase IB of the CATIE study. All tested patients were studied using well established clinical endpoints comparing baseline, intermediate, and last observation carried forward (LOCF) for the PANSS scores using CATIE data. LOCF analysis is a commonly used clinical endpoint for clinical trials for neuropsychiatric drugs, with particular changes in PANSS scores being used to indicate clinically significant response (Leucht et al., 2009).
The inventors also examined the impact of the OPRP status on whether patients' symptoms actually got worse when treated with olanzapine. This is an important safety consideration for antipsychotic drugs response, and failure of a drug to display the desired clinical response on a specific subset of patients could impact the drug label, being contraindicated for a particular subset of patients (see Example 5: “Risk Management Involving the OPRP Genetic Test). […]

[2] = test system: patients suffering from schizophrenia and related disorders; assay: CATIE study: percent change in total PANSS from baseline to LOCF, segmented by OPRP genetic signature status; assay type: in vivo, human; conditions: for Mean difference between olanzapine and labelled atypical antipsychotic, CATIE OPRP−: OPRP negative subjects; for Mean difference between olanzapine and labelled atypical antipsychotic, CATIE OPRP− / Mean difference between olanzapine and labelled atypical antipsychotic, CATIE unsegemented: delta PANSS, negative = olanzapine superior
Description: Genotype and phenotype data for the CATIE trial were recently made available to qualified researchers through the NIMH Center for Collaborative Genetic Studies on Mental Disorders. The sample consisted of a total of 738 patients. For the present study, the inventors assigned OPRP status to 628 subjects, including 411 subjects of self-reported European ancestry and 217 subjects of self-reported African ancestry. Further details on the patient population are described in the study by Sullivan and coworkers (Sullivan et al., 2008). The CATIE SNP genotype data evaluated included a total of 492,900 SNPs located throughout the genome.
The design of the CATIE study has been described in detail by others (Lieberman et al., 2005; Stroup et al., 2003). […] Subjects that failed Phase I treatment with the typical antipsychotic perphenazine were treated differently than those subjects that failed phase I treatment with an atypical antipsychotic. Instead of entering into Phase II of the trial, subjects who switched from perphenazine entered Phase IB. […] Subjects who failed Phase IB then entered Phase II.
as §1
Using the clinical data from the CAIE trial, the inventors derived several different metrics used for quantifying response in clinical trials of antipsychotic medications. The most commonly used psychometric instrument is the Positive and Negative Syndrome Scale (PANSS), a 30-item semi-quantitative instrument scored by clinical professionals (Kay et al., 1987). The greater the decrease in PANSS score, the better the clinical response. The most direct measure of clinical response is absolute change in PANSS score. In addition to absolute change, the improvement is often reported as a percentage change from baseline PANSS score.
To examine the relationship of genotypes to drug response the inventors used the publically available PLINK software (Purcell et al., 2007; available on the world wide web at pngu.mgh.harvard.edu/purcell/plink/) and Helix tree (Version 6.4.1; Golden Helix, Bozeman, Mont.). The inventors used Last observation Carry Forward (LOCF) delta PANSS values as a measure of response to antipsychotic treatment. […] The inventors refined the test further by conducting association analysis on using only those subjects that comprised the TT genotype of rs11960832.
As mentioned previously, the mean change in absolute or percent PANSS provides an important measure of efficacy in patients undergoing antipsychotic treatments. Indeed, many pivotal trials in the psychosis field used absolute and/or percentage change in PANSS Score as the primary endpoint (Leucht et al., 2009).

[3] = among antipsychotic medications; cited from earlier work
[4] = test system: patients suffering from schizophrenia and related disorders; assay: CATIE study: categorical responders (change in total PANSS ≦−10%, LOCF) by OPRP status; assay type: in vivo, human; conditions: for Responders: change in total PANSS ≦−10%
Protocol: A total of 738 subjects consented to provide DNA for genetic study. Details regarding SNP genotyping and quality control have been recently published (Sullivan et al., 2008). Only retrospective genetic analyses, judged to be exempt from human studies requirements by an IRB, were conducted in the current study. For the genetic analyses presented herein, the inventors combined and evaluated drug response data for both Phase I and Phase IB of the CATIE study. All tested patients were studied using well established clinical endpoints comparing baseline, intermediate, and last observation carried forward (LOCF) for the PANSS scores using CATIE data. LOCF analysis is a commonly used clinical endpoint for clinical trials for neuropsychiatric drugs, with particular changes in PANSS scores being used to indicate clinically significant response (Leucht et al., 2009). […] As described above CATIE patients were studied using well established clinical endpoints comparing baseline, intermediate, and last observation carried forward (LOCF) for the PANSS scores.

psychopathology (PANSS) [5] = conditions: weighted mean difference in PANSS score (absolute); negative = olanzapine superior; cited from earlier work
psychopathology (PANSS) [6] = conditions: meta-analysis, population not segmented by OPRP; negative = greater reduction in PANSS; cited from earlier work
psychopathology = conditions: meta-analysis, Davis et al. (2003); cited from earlier work
[7] = Caucasian patients, OPRP Negative, LOCF
[8] = Caucasian patients, OPRP Negative
[9] = Caucasian patients, OPRP Positive, LOCF
[10] = Caucasian patients, OPRP Positive
[11] = Caucasian subjects, OPRP Negative
[12] = Caucasian subjects, OPRP Positive
[13] = OPRP Negative subjects, CATIE Phase I and IB, more negative = greater improvement
[14] = OPRP Positive subjects, CATIE Phase I and IB, more negative = greater improvement
[15] = comparator = OPRP positive subjects treated with the labelled drug, positive = poorer response to olanzapine
[16] = olanzapine OPRP positive versus labelled drug OPRP positive, CATIE

SMILES | Number of individuals with delta PANSS ≦0% (non-worsening) [1, 7] | Number of individuals with delta PANSS ≧0% (worsening symptoms) [1, 7] | Number of individuals with delta PANSS ≦0% (non-worsening) ([1]; OPRP Negative, LOCF) | Number of individuals with delta PANSS ≧0% (worsening symptoms) ([1]; OPRP Negative, LOCF) | Worsening ([1]; OPRP Negative, LOCF) | Number of individuals with delta PANSS ≦0% (non-worsening) ([1]; OPRP Positive, LOCF) | Number of individuals with delta PANSS ≧0% (worsening symptoms) ([1]; OPRP Positive, LOCF) | Worsening ([1]; OPRP Positive, LOCF) | DELTA PANSS % (mean change in PANSS score from baseline to LOCF) [2, 13] | DELTA PANSS % (mean change in PANSS score from baseline to LOCF) [2, 14] | Mean difference in delta PANSS: olanzapine-treated OPRP positive group minus comparator group [2, 15] | Effect size (mean difference / standard deviation) [2, 16] | Number of individuals with change in total PANSS ≦−10% (responders) ([4]; OPRP Negative) | Number of individuals with change in total PANSS ≧−10% (non-responders) ([4]; OPRP Negative) | Responders ([4]; OPRP Negative) | Number of individuals with change in total PANSS ≦−10% (responders) ([4]; OPRP Positive) | Number of individuals with change in total PANSS ≧−10% (non-responders) ([4]; OPRP Positive) | Responders ([4]; OPRP Positive) | Mean difference between olanzapine and labelled atypical antipsychotic, Meta-analysis (psychopathology (PANSS) [5]) | Effect Size vs. Placebo (psychopathology (PANSS) [6]) | also measured
CN1CCN(C2=Nc3cc(Cl)ccc3Nc3ccccc32)CC1 [Clozapine] | 25 | 9 | – | – | – | – | – | – | – | – | – | – | – | – | – | – | – | – | – | – | Worsening [1, 8]: 26%*; Number of individuals with delta PANSS ≦0% (non-worsening) [1, 9]: 0; Number of individuals with delta PANSS ≧0% (worsening symptoms) [1, 9]: 2; Worsening [1, 10]: 100%; DELTA PANSS % (mean change in PANSS score from baseline to LOCF) [2, 11]: −13.1%; DELTA PANSS % (mean change in PANSS score from baseline to LOCF) [2, 12]: 28%; Incidence of metabolic side-effects [3]: greatest incidence of metabolic side-effects
OCCN1CCN(CCCN2c3ccccc3Sc3ccc(Cl)cc32)CC1 [Perphenazine] | – | – | 65 | 45 | 41%^+++ | 9 | 3 | 25%^ | −4.2^+++ % | −7.7^ % | 12 | 0.7 | 39 | 71 | 35%^+ | 5 | 7 | 42%^^ | – | – | –
OCCOCCN1CCN(C2=Nc3ccccc3Sc3ccccc32)CC1 [Quetiapine] | 85 | 62 | 95 | 62 | 42%^+++ | 9 | 9 | 50% | −3.2^++++ % | −1.2% | 5.5 | 0.3^b | 48 | 99 | 33%^+++ | 4 | 14 | 22% | −3.7 | −0.42 | Worsening [1, 8]: 42%*; Number of individuals with delta PANSS ≦0% (non-worsening) [1, 9]: 2; Number of individuals with delta PANSS ≧0% (worsening symptoms) [1, 9]: 7; Worsening [1, 10]: 78%; Response of OPRP positive group compared with OPRP negative group (percent change in PANSS) ([2]; Caucasian subjects, CATIE): responded worse; DELTA PANSS % (mean change in PANSS score from baseline to LOCF) [2, 11]: −0.6%; DELTA PANSS % (mean change in PANSS score from baseline to LOCF) [2, 12]: 12%; Mean difference between olanzapine and labelled atypical antipsychotic, CATIE OPRP− [2]: −8.4; Mean difference between olanzapine and labelled atypical antipsychotic, CATIE unsegemented [2]: −6.2; Effect size (mean difference / standard deviation) ([2]; olanzapine OPRP positive versus labelled drug OPRP positive, CATIE, listed as quetiapine): 0.3; Effect Size vs. FGA (first generation antipsychotics) (psychopathology): 0.01
O=C1Cc2cc(CCN3CCN(c4nsc5ccccc45)CC3)c(Cl)cc2N1 [Ziprasidone] | – | – | 35 | 34 | 49%^++++ | 7 | 4 | 36% | −1.5^++++ % | −0.5% | 4.8 | 0.2^b | 16 | 53 | 23%^++++ | 2 | 9 | 18% | −8.3 | −0.48 | Mean difference between olanzapine and labelled atypical antipsychotic, CATIE OPRP− [2]: −10.1; Mean difference between olanzapine and labelled atypical antipsychotic, CATIE unsegemented [2]: −4.9; Effect size (mean difference / standard deviation) ([2]; olanzapine OPRP positive versus labelled drug OPRP positive, CATIE, listed as ziprasidone): 0.2; Effect Size vs. FGA (first generation antipsychotics) (psychopathology): −0.04
Cc1cc2c(s1)Nc1ccccc1N=C2N1CCN(C)CC1 [Olanzapine] | – | – | 113 | 26 | 19%* | 8 | 18 | 69% | −11.6% | 4.3% | – | – | 73 | 66 | 53%* | 1 | 25 | 4% | – | – | Effect size, olanzapine-treated OPRP positive patients compared to various other OPRP-drug combinations ([2]; CATIE study, range over comparisons): 0.2 to 1.0; Mean difference in delta PANSS: olanzapine-treated OPRP positive group minus comparator group ([2]; comparator = olanzapine-treated OPRP negative subjects): 15.9; Effect size (mean difference / standard deviation) ([2]; olanzapine OPRP positive versus olanzapine OPRP negative, CATIE): 1.0^a; Effect size (mean difference / standard deviation) ([2]; olanzapine OPRP positive versus olanzapine OPRP negative, CATIE, listed as olanzapine): 1.0; Incidence of metabolic side-effects [3]: greatest incidence of metabolic side-effects
Cc1nc2n(c(=O)c1CCN1CCC(c3noc4cc(F)ccc34)CC1)CCCC2 [Risperidone] | – | – | 91 | 55 | 38%^+++ | 13 | 7 | 35%^ | – | – | – | – | 55 | 91 | 38%^+ | 7 | 12 | 35%^ | −1.9 | −0.59 | –
